From patent publication US8309068B2, “Isolated polypeptides and methods of improving muscle strength” (Myostin Therapeutics Pty Ltd., priority 2006, dated 2012)
Where no end group is shown, it is not given here.

Key:
primary ovine myoblasts = experiment: Ovine myoblast proliferation assay; assay type: cell-based; conditions: 1, 5 or 10 μg/ml; 48 hours
Method: (§1) Human skeletal muscle myoblasts (Cambrex, USA) or primary ovine myoblasts were grown in Dulbecco's Modified Eagle Medium containing 20% FBS, 10% Horse serum and 0.5% chicken embryo extract according to the standard techniques. The myoblast proliferation assay was carried out in uncoated 96-well microtitre plates. Cell cultures were seeded at 2000 cells/well. Following a 24-hour attachment period, test media supplemented with 5% FCS containing either buffer as a control or different myostatin antagonists (300, 310 or 320) were added at 1, 5 and 10 μg/ml and cells were incubated for a further 144 hour period (for human cells) or 48 hours (for ovine cells). After the incubation period, proliferation was assessed using methylene blue photometric endpoint assay as previously described (Thomas et al, 2000).

myostatin = experiment: Myoblast chemotaxis assay, recovery of myostatin chemo-inhibition by antagonists; assay type: cell-based
Method: Primary myoblasts were cultured from the hind limb muscle of young (4 to 6 week old) or old (24 month old) mice, according to the published protocols (Allen et al., 1997; Partridge, 1997). Briefly, muscles were minced, and digested in 0.2% collagenase type 1A for 90 min. Cultures were enriched for myoblasts by pre-plating on uncoated plates for 3 hours. Myoblast cultures were maintained in growth media (GM) supplemented with 20% fetal calf serum (FCS), 10% HS and 1% CEE on 10% Matrigel coated plates, at 37° C./5% CO2. The extent of culture purity was assessed by flow cytometry analysis of MyoD expression after 48 hours in culture. Cells were harvested using trypsin, suspended at a concentration of 10^6 cells/200 μl and fixed overnight in 5 ml 70% ethanol at −20° C. Staining was performed for 30 min at room temperature using rabbit polyclonal anti-MyoD, 1:200 (Santa Cruz), followed by Alexa fluor 488 anti-rabbit conjugate, 1:500 (Molecular Probes). Analysis was carried out in duplicate with 10^4 cell events collected in each assay. Debris was excluded by gating on forward and side scatter profiles. Cells were analyzed by FACScan (Becton Dickinson). Macrophages were isolated by a peritoneal lavage technique and/or derived from bone marrow Zymosan-activated mouse serum (ZAMS) was prepared according to the published protocol (Colditz and Movat, 1984).
For the chemotaxis assay of myoblasts, a first assay was carried out on myoblasts from 2 year old mice as follows. DMEM containing 2% horse serum (HS), 5% chicken embryo extract (CEE) plus dialysis buffer was used as positive control. […] Plain DMEM was used as negative control. On a 24-well plate, the bottom wells were filled with test or control media. Seventy-five thousand cells were added to the top wells containing polyethylene terephthalate (PET) 0.8 μm membranes coated with 1% Matrigel. The plate was incubated for 7 h at 37° C., 5% CO2. […] The membrane was then fixed, stained in Gill's hematoxylin and wet mounted on slides. Migrated cells were counted on four representative fields per membrane and the average number plotted. The results are shown in FIG. 6 (myoblast migration from old mice) and FIG. 7 (myoblast migration from young mice).

primary myoblasts = experiment: Migration of primary myoblasts isolated from mice treated in vivo; conditions: 6 μg/g BW SC three times a week for six weeks; three chemo-attractant media; vs saline
Excerpt: In a second myoblast migration assay, primary myoblasts isolated form hind limb of saline treated (control) and myostatin antagonist 300 treated mice (as described in example 4 below). Three chemo-attractant media were used: DMEM containing 2% horse serum (HS) and 5% chicken embryo extract (CEE) (optimal chemo-attractant); DMEM containing only 5% CEE or DMEM containing only 2% HS (both suboptimal chemo-attractants). Plain DMEM was used as negative control. On a 24-well plate, the bottom wells were filled with test or control media. Seventy-five thousand cells were added to the top wells. The plate was incubated for 7h at 37° C., 5% CO2. […] The membrane was then fixed, stained in Gill's hematoxylin and wet mounted on slides. Migrated cells were counted on four representative fields per membrane and the average number plotted.
An animal trial was conducted to assess the effects of myostatin antagonist 300 in improving muscle function. Sixteen month old mice were divided into two groups of ten. While the control group received saline subcutaneous (SC) injections, the other group received myostatin antagonist 300 SC at 6 μg/gram of BW three times a week for six weeks. The functional improvement of sarcopenic muscle was assessed by measuring grip strength of mice at the end of trial. Grip strength was measured in Newtons.

C2C12 myoblasts = experiment: C2C12 myoblast proliferation assay (methylene blue endpoint); assay type: cell-based, murine
Method: A polypeptide of the invention, or a fragment, variant or derivative thereof has the biological function of antagonising myostatin activity. To determine whether a polypeptide of the invention, or a fragment, variant or derivative thereof, is able to antagonise myostatin activity, such activity can be tested by growing myoblasts in the presence or absence (control) of a candidate polypeptide of the invention. […]
The myoblast proliferation assay was carried out in uncoated 96-well microtitre plates. C2C12 cultures were seeded at 1000 cells/well. Following a 16-hour attachment period, test media containing either recombinant wild type myostatin or different myostatin antagonists were added and cells were incubated for a further 48 or 72 hour period. For competition assay, wild type myostatin was competed with different concentrations of myostatin antagonists prior to the addition into the media. After the incubation period, proliferation was assessed using methylene blue photometric endpoint assay as previously described (Thomas et al, 2000).

[1] = system: Human skeletal muscle myoblasts; experiment: Human myoblast proliferation assay; assay type: cell-based; conditions: 1, 5 or 10 μg/ml; 144 hours
Method: as §1

[2] = system: bone marrow derived macrophages; experiment: Migration of bone marrow derived macrophages from mice treated in vivo; conditions: 6 μg/g BW SC three times a week for six weeks; ZAMS 11%, 22% or 33%; vs saline
Excerpt: For chemotaxis analysis of macrophages bone marrow was isolated from saline treated (control) and myostatin antagonist 300 treated mice (as described in example 4, below), and plated at 5×10^6 cells/plate in DMEM 10% FBS plus 10% L929 conditioned medium (containing CSF-1) for 5 days to induce macrophage differentiation. The macrophages were then harvested and used in the assay. Three concentrations of DMEM containing Zymosan-activated mouse serum (ZAMS) was used, 33% (optimum chemo-attractant concentration), 22% and 11% (suboptimal chemo-attractant concentrations). Plain DMEM was used as negative control. On a 24-well plate, the bottom wells were filled with test or control media. Seventy-five thousand cells were added to the top wells containing polyethylene terephthalate (PET) 0.8 μm membranes. The plate was incubated for 4h at 37° C., 5% CO2. […] The membrane was then fixed, stained in Gill's hematoxylin and wet mounted on slides. Migrated cells were counted on four representative fields per membrane and the average number plotted.
An animal trial was conducted to assess the effects of myostatin antagonist 300 in improving muscle function. Sixteen month old mice were divided into two groups of ten. […] The functional improvement of sarcopenic muscle was assessed by measuring grip strength of mice at the end of trial. Grip strength was measured in Newtons.

myostatin antagonist 300: recombinant peptide, amino acids 267-300 of bovine myostatin, with N terminal and C terminal tag (SEQ ID NO: 6) (DFGLDCDEHSTESRCCRYPLTVDFEAFGWDWIIA; cysteine pairing not given here; also: N- and C-terminal tags; listed as Homo sapiens)
proliferation capacity of ovine myoblasts compared to control (primary ovine myoblasts): significantly enhanced
rescue of chemo-inhibiting effects of myostatin on myoblast migration (myostatin; myoblasts from old (2 year old) mice, antagonist added at 5 μg/ml, myostatin 2.5 μg/ml): rescued to levels similar to those observed in the control
rescue of chemo-inhibiting effects of myostatin on myoblast migration (myostatin; myoblasts from young (1 month old) mice): rescued the migration of myostatin cells to control levels
migration rates of myoblasts isolated from treated mice (primary myoblasts): significantly increased migration rates
proliferation capacity of myoblasts compared to control (C2C12 myoblasts; 1 μg/ml or 5 μg/ml over 48 or 72 hours): significantly enhanced
concentration at which the highest myoblast proliferation rate was observed (C2C12 myoblasts; 48 hour time point): 5 µg/mL
proliferation capacity of human myoblasts compared to control [1]: significantly enhanced
migratory ability of macrophages isolated from treated mice [2]: significantly increased
